Experiments:
Assay type in all cases: cell-based
[1] = system: Caco-2 human colon adenocarcinoma cells; test: Cytotoxicity, LDH assay, Caco-2 cells; details: Homo sapiens, Caco-2, 24 h, 24 h treatment, 5–100 μg/mL
Procedure: (§1) Cytotoxic activity was tested on human cancer and normal cells, grouped in three panels, namely: prostate, skin and gastrointestinal. The prostate panel consisted of prostate cancer cell lines Du145 (ATCC HTB-81) and PC3 (ATCC CRL-1435), and prostate epithelial cells PNT-2 (ECACC 95012613). Melanoma cell lines A375 (ATCC CRL-1619) and HTB140 (ATCC Hs 294T) together with skin keratinocytes HaCaT (obtained as a kind gift of prof. Marta Michalik, Department of Cell Biology, Jagiellonian University, Kraków, Poland) were included into the skin panel. The gastrointestinal panel of cells comprised colon cancer cell lines Caco-2 (ATCC HTB-37) and HT29 (ATCC HTB-38). Du145 cells were grown in Modified Eagle’s Medium with low (1.0 g/L) glucose concentration, HT29, PC3 and PNT-2 cells in Dulbecco’s Modified Eagle’s Media: F12 HAM Nutrient Mixture, Caco-2 in Modified Eagle’s Medium with NEAA (no-essential amino acids) while melanoma cells and keratinocytes were maintained in Modified Eagle’s Medium with high (4.5 g/L) glucose concentration. The culture media (all supplied by Sigma-Aldrich Co.; St. Louis, MO, USA) contained antibiotics and 10% fetal bovine serum (FBS). All cultures were maintained at 37 °C, in a humidified, 5% CO2 containing, atmosphere.
(§2) The examined triterpenes were diluted in the culture media from freshly made stock solutions in MeOH (10 mg/mL) to the working concentrations (from 0 to 100 μg/mL).
(§3) Cell viability was determined as it was described previously. Cells suspended in the nutrient medium were transferred into 96-well microtiter plates (density 1.5 × 10^4 per well), and preincubated for 24 h (37 °C, 5% CO2). Then, the culture medium was replaced with the medium containing different concentrations of 1 or 2 (1–100 μg/mL). After 24 h of incubation, viability of the cells was determined using colorimetric lactate dehydrogenase (LDH) assay, in comparison to the controls to which corresponding aliquots of MeOH diluted with culture media were added. Cells grown in the medium without the tested compounds were used as control I (negative) and the positive control (control II) was obtained by incubation of the cells in the medium containing 1% Triton X-100. LDH released from the damaged cells into the cell culture medium was quantified by measuring the absorbance at 490 nm using Synergy II Biotek (BioTek Instruments, Winooski, VT, USA) microplate reader. Cytotoxicities of the examined compounds were calculated as follows: [(absorbance of the tested sample − absorbance of control I)/(absorbance of control II − absorbance of control I)] × 100. Results were means of three independent measurements (± SD). Doxorubicin (Ebewe Pharma GmbH., Unterach, Austria) was used as a reference cytostatic drug. The IC50 values were determined by plotting the percentage viability of the cells versus concentration and the adequate calculations made using AAT Bioquest website program (https://www.aatbio.com/tools/ic50-calculator, accessed on 29 October 2021).

[2] = system: DU145 human prostate carcinoma cells; test: Cytotoxicity, LDH assay, DU145 cells; details: Homo sapiens, DU-145, 24 h, 24 h treatment, 5–100 μg/mL
Procedure: as §1, §2, §3

[3] = system: HT29 human colon adenocarcinoma cells; test: Cytotoxicity, LDH assay, HT29 cells; details: Homo sapiens, HT-29; 24 h treatment, 5–100 μg/mL
Procedure: as §1, §2, §3

[4] = system: A375 human malignant melanoma cells; test: Cytotoxicity, LDH assay, A375 cells; details: Homo sapiens, A-375; 24 h treatment, 5–100 μg/mL
Procedure: as §1, §2, §3

[5] = system: PC3 human prostate adenocarcinoma cells; test: Cytotoxicity, LDH assay, PC3 cells; details: Homo sapiens, PC-3, 24 h, 24 h treatment, 5–100 μg/mL
Procedure: as §1, §2, §3

[6] = system: PNT-2 human normal prostate epithelium cells; test: Cytotoxicity, LDH assay, PNT-2 cells; details: Homo sapiens, PNT2; 24 h treatment, 5–100 μg/mL
Procedure: as §1, §2, §3

COc1cccc2c1C(=O)c1c(O)c3c(c(O)c1C2=O)C[C@@](O)(C(=O)CO)C[C@@H]3O[C@H]1C[C@H](N)[C@H](O)[C@H](C)O1 [Doxorubicin, reference compound]
IC50 [1]: 3.44 µg/mL | IC50 [2]: 3.18 µg/mL | IC50 [3]: 1.53 µg/mL | IC50 [4]: 0.59 µg/mL | IC50 [5]: > 50 µg/mL | IC50 [6]: 1.38 µg/mL
